Results reported in paper PMC6240096, “A hPSC-based platform to discover gene-environment interactions that impact human β-cell and dopamine neuron survival” (Nature Communications, 2018).

Legend:
A1AT+ hepatocytes = test: Inhibition curve on hESC-derived hepatocytes; format: cell-based, human; settings: cell survival rate, 4 days, n=3
Method: (§1) hESCs-derived INS^+ cells, MSCs[43], neurons, and hepatocytes[44] were derived based on the reported protocols and re-plated on 96-well plates with Accutase digestion. Cardiomyocytes (CMs) were differentiated from H9-MYH6: mCherry reporter line, based on the reported protocol. After overnight incubation, cells were treated with DMSO or different doses of hit compounds for 4 days. After fixation, the cells were stained with markers for each cell type. DAPI was used to stain cell nuclei. Plates were analyzed by ImageXpress^MICRO Automated High-Content Analysis System.
(§2) Supplementary Figure 4. Assessment of the toxic effect of propargite on different type […]
(§3) (a) Flow cytometry char acterization of CD29+ and CD73+ mesenchymal stem cells (MSCs) derived from H1 hESCs. (b-c) microscope image (b) and flow cytometry (c) characterization of cardiomyocytes expressing MYH6+ derived from a MYH6:mCherry reporter hESC line. (d-e) Immunocytochemistry characterization of MAP2+/TUJ1+ and HuC/D+/MAP2+ neurons (d) and A1AT+/ASGPR1+ hepatocytes (e) derived from H1 hESCs. All the cells were counterstained by DAPI (blue). Scale bars, 100 µm. (f) Inhibition curve of propargite on pancreatic β-like cells, MSCs, cardiomyocytes, neurons, and hepatocytes derived from hESCs, and BJ-fibroblasts (n=3). Values presented as mean±S.D. […]

mouse pancreatic β-cells = test: CD-1 mice treated by intraperitoneal injection for 5 days; format: in vivo
Method: All animal work has been approved by IACUC committee of Weill Cornell Medical College. CD-1 adult male mice were treated with different doses of propargite or vehicle (corn oil) through intraperitoneal injection for 5 days. Fasting blood glucose level were monitored every day using Abbott FreeStyle Lite blood glucose monitoring system. Then, CD-1 adult male mice were treated with 12 mg/kg propargite or vehicle (corn oil) through intraperitoneal injection for 5 days. Fasting blood was collected via tail nicking following 14–16 h of fasting with ad libitum access to drinking water. Serum mouse insulin levels were assessed by ELISA (80-INSMR-CH01, Alpco). Mice were then killed. The pancreases were embedded in OCT. The tissue was then sectioned at 5 μm for immunohistochemistry staining analysis of DNA damage marker γ-H2A.X and β-cell marker INS.

INS- cells = test: High-content survival / inhibitory curve, hESC-derived INS- cells; format: cell-based, human; settings: H1 hESC-derived, β-cell differentiation protocol 1, 4 days treatment, n = 8
Method: The screening library ToxCast Phase I was obtained from the US Environmental Protection Agency, which contains approximately 2000 compounds dissolved at 20 mM in DMSO. The H1 hESC-derived population was dissociated with Accutase and re-plated onto laminin V-coated 384-well plates at 5000 cells per well. After 16 h incubation, cells were treated with individual compounds from the ToxCast library with four concentrations, including 20 nM, 200 nM, 2 μM, and 20 μM, for each compound. After 4 days, the cells were fixed with 10% formalin and stained with an INS antibody and DAPI, followed by automatic imaging and analysis by ImageXpress^MICRO Automated High-Content Analysis System (Molecular Devices) to count the numbers of INS^+ and INS^− cells. The survival rate was calculated by dividing the numbers of INS^+ cells in compound treated conditions by the average number of INS^+ cells in DMSO-treated conditions. The compounds that induced more than 60% reduction of the survival rate of INS^+ cells and less than 20% of the INS^− cells were chosen as primary hits. […]
hESCs-derived INS^+ cells, MSCs[43], neurons, and hepatocytes[44] were derived based on the reported protocols and re-plated on 96-well plates with Accutase digestion. […] Plates were analyzed by ImageXpress^MICRO Automated High-Content Analysis System.

HuC/D+ neurons = test: Inhibition curve / survival of hESC-derived neurons; format: cell-based, human
Method: as §1, §2, §3

[1] = tested on: MYH6:mCherry+ cardiomyocytes; test: Inhibition curve on hESC-derived cardiomyocytes; format: cell-based, human; settings: cell survival rate, 4 days, n=3
Method: as §1, §2, §3

MIN6 cells = test: Autophagy marker LC3-II western blotting; format: cell-based, mouse; settings: 0.8 µM or 1.6 µM propargite
Source text: To extract intracellular protein, cells were placed on ice, washed twice with ice-cold PBS and lysed immediately with RIPA buffer (Life Technologies, 89900) supplemented with a protease inhibitor cocktail (Life Technologies, 78440). Cell lysates were then sonicated and the soluble fraction was collected after centrifugation. Protein amount was quantified by the BCA protein assay (Life Technologies, 23227). To extract extracellular HMGB1, tissue culture media were collected and concentrated using Afyon SDS-PAGE sample preparation kit (advansta, K-02101-025). 20 μg of total protein for each sample was mixed with loading buffer and incubated for 5 min at 95 °C before being loaded into NuPAGE® Novex® 4–12% […] Protein Gels (Life Technologies, NP0321BOX) for electrophoresis. Separated proteins were transferred to a PVDF membrane (Millipore, IPSN07852) after electrophoresis. […] ECL signals were developed and detected using the SuperSignal™ West Femto Maximum Sensitivity Substrate (Life Technologies, 34094) and a C-DiGit Chemiluminescent Western Blot Scanner (LI-COR). […]
cells. (b, c) Flow cytometry analysis (b) and quantification (c) of the percentage of […]
Etoposide was used as a positive control. Values presented as mean±S.D. (d, e) Immunocytochemistry analysis (d) and quantification (e) of the percentage of Active Caspase-3+ cells in 1.6 µM propargite treated MIN6 cells (n=3). […]

[2] = 12 mg/kg daily for 5 days, intraperitoneal, CD-1 mice

## 2-(4-tert-butylphenoxy)-cyclohexyl prop-2-yne-1-sulfonate [propargite]
A1AT+ hepatocytes
  IC50: 13 µM
Mouse pancreatic β-cells; [2]
  blood glucose level: lightly increased
  body weight: without significantly affecting
  insulin levels in the plasma of fasted mice: significant reduction
Mouse pancreatic β-cells; 12 mg/kg, mouse pancreas
  percentage of γ-H2AX+/INS+ in INS+ cells (DNA damage): significant increase
INS- cells
  IC50: 9.83 µM
HuC/D+ neurons; 1.6 μM propargite
  susceptibility of HuC/D+ neurons: highly susceptible
HuC/D+ neurons; cell survival rate, 4 days, n=3
  IC50: 1.46 µM
[1]
  IC50: 29 µM
MIN6 cells
  relative levels of LC3-II: no significant increase
